From US20060106032A1, “Synthesis of N2 - (substituted arylmethyl) -3- (substituted phenyl) indazoles as novel anti-angiogenic agents” (YUNG SHIN PHARM. IND. CO., LTD., priority 2004, published 2006)
One block for each compound: values may come before it.

Assays:
[1] = system: Human umbilical vein endothelial cells (HUVECs); assay: [3H]thymidine incorporation assay: VEGF-induced cell proliferation (DNA synthesis) of HUVECs; assay type: cell-based; settings: VEGF 10 ng/mL; for activity on VEGF-induced cell proliferation of HUVECs compared with positive control YD-3: 1 μM
Protocol: (§1) Human umbilical vein endothelial cells were incubated in the absence (basal and control) or presence of tested sample (YD-3, 10, 15, 17, 21, 25, 26) with 30 μM, and then vascular endothelial growth factor (VEGF) was added (except for basal) to induce DNA synthesis, which was detected using [^3H] thymidine incorporation assay.
as §1, with “10” for “30”, “inducd” for “induce”, “assay. Means±S.E. (n=5) were presented.” for “assay.”
as §1, with “1” for “30”, “inducd” for “induce”, “assay. Means±S.E. (n=5) were presented.” for “assay.”
(§2) Human umbilical vein endothelial cells (HUVECS) were isolated according to the protocols from Jaffe et al. and obtained from human umbilical cord veins with collagenase and cultured in 75 cm^2 plastic flasks in M199 containing 20% FBS, 15 μg/mL endothelial cell growth supplements (ECGs). Confirmation of their identity as endothelial cells was provided by detection of CD31 (PECAM-1), assessed by immunostaining. Experiments were conducted on HUVECs that had used in passage 2 to 5.
Confluent HUVECs were trypsinized, suspended in DMEM supplemented with 20% FBS, and seeded at 1.0×10^4 cells per well into 96-well plates. After 24 h, the cells were washed twice with PBS and starved with 2% FBS-M199 medium for 24 h. The cells were incubated with or without indicated reagents and growth factors (VEGF; 10 ng/mL) for 24 h and harvested. Before the harvest, cells were incubated with [^3H]thymidine (2 μCi/mL) for 4 h, harvested with Filter-Mate (Packard), and incorporated radioactivity was determined.
The effect of tested compounds on VEGF-induced cell proliferation of HUVECs was assessed with the [^3H]thymidine incorporation assay, and the results were illustrated in FIG. 5-FIG. 7.

[2] = system: Human umbilical vein endothelial cells (HUVECs); assay: VEGF-induced tube formation of HUVECs on Matrigel; assay type: cell-based; settings: FIG. 8; for blockage of VEGF-induced tube formation of HUVECs: Matrigel-coated chamberslide
Protocol: FIG. 8 show photographs of the results of in vitro assay (inhibition of tube formation). Human umbilical vein endothelial cells were cultured onto chamberslide, which was precoated with Matrigel (10 mg/ml). Cells were treated without (basal and control) or with tested sample (YD-3, 10, 15, 17, 21, 25, 26) and then vascular endothelial growth factor (VEGF) was added to induce tube formation. All photographs were taken at 100×magnification.
as §2

[3] = system: VEGF-induced angiogenesis in Matrigel plug; assay: In vivo Matrigel plug assay (neovascular formation, hemoglobin concentration); settings: nude mice, FIG. 9; for anti-angiogenic activity in Matrigel plug assay (hemoglobin concentration): 150 ng/ml VEGF plug, oral, seven-day administration
Protocol: Nude mice were subcutaneously injected with a Matrigel plug containing 150 ng/ml vascular endothelial growth factor (VEGF). Vehicle or tested sample (YD-3, 10, 15, 17, 21, 25, 26) was orally administered into the mice. After a seven-day administration, the animals were euthanized and the plugs were cut of the mice for the measurement of angiogenic effect using the hemoglobin concentration as the parameter by means of a hemoglobin detection kit (Sigma). Means±S.E. (n=3) were presented. Nude mice (6 weeks of age) were given s.c. injections of 500 μL of Matrigel (Becton Dickinson, Bedford, Mass.) at 4° C. with or without YC-1 and growth factor (150 ng/mL VEGF). After injection, the Matrigel rapidly formed a plug. After 7 days, the skin of the mouse was easily pulled back to expose the Matrigel plug, which remained intact. After quantitative differences were noted and photographed, hemoglobin was measured, as an indication of blood vessel formation, using the Drabkin method (Drabkin reagent kit 525, Sigma, St. Louis, Mo.). The concentration of hemoglobin was calculated from a known amount of hemoglobin assayed in parallel. The in vivo Matrigel plug assay was used in this study to determine quantitative the anti-angiogenic effect of tested compounds.

[4] = system: angiogenesis; assay: Evaluation for anti-angiogenic activities (overall summary); settings: summary statement
Protocol: 3-(4-Methylphenyl)-1H-indazole (10) and N^2-(substituted benzyl)-3-(4-methylphenyl)indazoles (15, 17, 21, 25, 26) were evaluated for anti-angiogenic activities.
In this study, 3-(4-methylphenyl)-1H-indazole (10) and five of the above mentioned N^2-regioisomers, namely, compounds 15, 17, 21, 25 and 26 were selected for evaluating their effects on VEGF-induced cell proliferation, on VEGF-induced tube formation of HUVECs in vitro, and on neovascular formation in vivo.

Structure (SMILES): CCOC(=O)c1ccc(-c2n[nH]c3ccccc23)cc1 [Compound 11, Ethyl 4-(1H-indazol-3-yl)benzoate]
- melting point: 133 to 135 °C

Structure (SMILES): Cc1ccc(-c2c3ccccc3nn2Cc2cccc(Cl)c2)cc1 [Compound 17, 2-(3-Chlorobenzyl)-3-(4-methylphenyl)-2H-indazole]
- inhibitory effect on VEGF-induced cell proliferation of HUVECs ([3H]thymidine incorporation) ([1]; 10 μM, FIG. 6): significant inhibitory effect
- inhibitory effect on VEGF-induced cell proliferation of HUVECs ([3H]thymidine incorporation) ([1]; 30 μM, FIG. 5): significant inhibitory effect
- blockage of VEGF-induced tube formation of HUVECs [2]: significant blockage
- anti-angiogenic activity in Matrigel plug assay (hemoglobin concentration) [3]: significant anti-angiogenic activities
- melting point: 98 to 100 °C

Structure (SMILES): O=C(NO)c1ccc(-c2c3ccccc3nn2Cc2ccccc2)cc1 [Compound 38, 4-(2-Benzyl-2H-indazol-3-yl)-N-hydroxybenzamide]
- melting point: 201 to 203 °C

Structure (SMILES): Cc1ccc(-c2c3ccccc3nn2Cc2ccc(Cl)cc2)cc1 [Compound 15, 2-(4-Chlorobenzyl)-3-(4-methylphenyl)-2H-indazole]
- activity on VEGF-induced cell proliferation of HUVECs compared with positive control YD-3 [1]: better activity than positive control YD-3
- inhibitory effect on VEGF-induced cell proliferation of HUVECs ([3H]thymidine incorporation) ([1]; 10 μM, FIG. 6): significant inhibitory effect
- inhibitory effect on VEGF-induced cell proliferation of HUVECs ([3H]thymidine incorporation) ([1]; 30 μM, FIG. 5): significant inhibitory effect
- inhibitory activity on tube formation compared with other tested compounds and YD-3 [2]: more potent than other tested compounds and YD-3
- blockage of VEGF-induced tube formation of HUVECs [2]: significant blockage
- anti-angiogenic activity in Matrigel plug assay (hemoglobin concentration) [3]: significant anti-angiogenic activities
- anti-angiogenic potency in Matrigel plug assay compared with positive control YD-3 [3]: superior potency than the positive control YD-3
- anti-angiogenic activity (overall) [4]: significant anti-angiogenic activity
- melting point: 107.4 to 109.5 °C

Structure (SMILES): Cc1ccc(-c2c3ccccc3nn2Cc2ccccc2Cl)cc1 [Compound 19, 2-(2-Chlorobenzyl)-3-(4-methylphenyl)-2H-indazole]
- melting point: 131.3 to 137.8 °C

Structure (SMILES): Cc1ccc(-c2n[nH]c3ccccc23)cc1 [Compound 10, 3-(4-Methylphenyl)-1H-indazole]
- inhibitory effect on VEGF-induced cell proliferation of HUVECs ([3H]thymidine incorporation) ([1]; 10 μM, FIG. 6): significant inhibitory effect
- inhibitory effect on VEGF-induced cell proliferation of HUVECs ([3H]thymidine incorporation) ([1]; 30 μM, FIG. 5): significant inhibitory effect
- melting point: 106 to 107 °C

Structure (SMILES): Cc1ccc(-c2c3ccccc3nn2Cc2ccccc2)cc1 [Compound 26, 2-Benzyl-3-(4-methylphenyl)-2H-indazole]
- inhibitory effect on VEGF-induced cell proliferation of HUVECs ([3H]thymidine incorporation) ([1]; 10 μM, FIG. 6): significant inhibitory effect
- inhibitory effect on VEGF-induced cell proliferation of HUVECs ([3H]thymidine incorporation) ([1]; 30 μM, FIG. 5): significant inhibitory effect
- blockage of VEGF-induced tube formation of HUVECs [2]: significant blockage
- anti-angiogenic activity in Matrigel plug assay (hemoglobin concentration) [3]: significant anti-angiogenic activities
- melting point: 110.7 to 111.3 °C

Structure (SMILES): OCc1ccc(-c2c3ccccc3nn2Cc2ccco2)cc1 [Compound 40, {4-[2-(2-Furylmethyl)-2H-indazol-3-yl]phenyl]methanol]
- melting point: 129 to 130 °C

Structure (SMILES): Cc1ccc(-c2c3ccccc3nn2Cc2ccccc2C)cc1 [Compound 23, 2-(2-Methylbenzyl)-3-(4-methylphenyl)-2H-indazole]
- melting point: 125 to 128.8 °C

Structure (SMILES): OCc1ccc(-c2c3ccccc3nn2Cc2ccccc2)cc1 [Compound 39, [4-(2-Benzyl-2H-indazol-3-yl)phenyl]methanol]
- melting point: 148 to 149 °C

Structure (SMILES): O=C(O)c1ccc(-c2c3ccccc3nn2Cc2ccccc2)cc1 [Compound 35, 4-(2-Benzyl-2H-indazol-3-yl)benzoic acid]
- melting point: 159 to 163 °C

Now from value to compound, other results behind:

- melting point: 79.6 to 82.3 °C
Structure (SMILES): Cc1ccc(Cn2nc(-c3ccc(C)cc3)c3ccccc32)cc1 [Compound 20, 1-(4-Methylbenzyl)-3-(4-methylphenyl)-1H-indazole]

- melting point: 121 to 122 °C
Structure (SMILES): COC(=O)c1ccc(-c2c3ccccc3nn2Cc2ccc(F)cc2)cc1 [Compound 30, Methyl 4-[2-(4-fluorobenzyl)-2H-indazol-3-yl]benzoate]

- melting point: 114.1 to 116.5 °C
Structure (SMILES): Cc1ccc(-c2nn(Cc3ccccc3C)c3ccccc23)cc1 [Compound 22, 1-(2-Methylbenzyl)-3-(4-methylphenyl)-1H-indazole]

- melting point: 94 to 96 °C
Structure (SMILES): CCOC(=O)c1ccc(-c2c3ccccc3nn2Cc2ccccc2F)cc1 [Compound 32, Ethyl 4-[2-(2-fluorobenzyl)-2H-indazol-3-yl]benzoate]

- melting point: 66.6 to 68 °C
Structure (SMILES): Cc1ccc(-c2nn(Cc3cccc(Cl)c3)c3ccccc23)cc1 [Compound 16, 1-(3-Chlorobenzyl)-3-(4-methylphenyl)-1H-indazole]

- melting point: 99 to 101 °C
Structure (SMILES): COC(=O)c1ccc(-c2nn(Cc3ccco3)c3ccccc23)cc1 [Compound 33, Methyl 4-[1-(2-furylmethyl)-1H-indazol-3-yl]benzoate]

- melting point: 79.9 to 82.3 °C
Structure (SMILES): Cc1ccc(-c2nn(Cc3ccc(Cl)cc3)c3ccccc23)cc1 [Compound 14, 1-(4-Chlorobenzyl)-3-(4-methylphenyl)-1H-indazole]

- melting point: 112 to 113 °C
Structure (SMILES): CCOC(=O)c1ccc(-c2c3ccccc3nn2Cc2ccccc2)cc1 [Compound 28, Ethyl 4-(2-benzyl-2H-indazol-3-yl)benzoate]

- melting point: 118 to 120 °C
Structure (SMILES): COC(=O)c1ccc(-c2nn(Cc3ccc(F)cc3)c3ccccc23)cc1 [Compound 29, Methyl 4-[1-(4-fluorobenzyl)-1H-indazol-3-yl]benzoate]

- melting point: 113.6 to 115 °C
Structure (SMILES): COc1ccc(Cn2nc3ccccc3c2-c2ccc(C)cc2)cc1 [Compound 25, 2-(4-Methoxylbenzyl)-3-(4-methylphenyl)-2H-indazole]
- activity on VEGF-induced cell proliferation of HUVECs compared with positive control YD-3 [1]: better activity than positive control YD-3
- inhibitory effect on VEGF-induced cell proliferation of HUVECs ([3H]thymidine incorporation) ([1]; 10 μM, FIG. 6): significant inhibitory effect
- inhibitory effect on VEGF-induced cell proliferation of HUVECs ([3H]thymidine incorporation) ([1]; 30 μM, FIG. 5): significant inhibitory effect
- inhibitory activity on tube formation compared with other tested compounds and YD-3 [2]: more potent than other tested compounds and YD-3
- blockage of VEGF-induced tube formation of HUVECs [2]: significant blockage
- anti-angiogenic activity in Matrigel plug assay (hemoglobin concentration) [3]: significant anti-angiogenic activities
- anti-angiogenic potency in Matrigel plug assay compared with positive control YD-3 [3]: superior potency than the positive control YD-3
- anti-angiogenic activity (overall) [4]: significant anti-angiogenic activity

- melting point: 102 to 103 °C
Structure (SMILES): CCOC(=O)c1ccc(-c2nn(Cc3ccccc3F)c3ccccc23)cc1 [Compound 31, Ethyl 4-[1-(2-fluorobenzyl)-1H-indazol-3-yl]benzoate]

- melting point: 140 to 143 °C
Structure (SMILES): COC(=O)c1ccc(-c2c3ccccc3nn2Cc2ccco2)cc1 [Compound 34, Methyl 4-[2-(2-furylmethyl)-2H-indazol-3-yl]benzoate]

- melting point: 237 to 239 °C
Structure (SMILES): O=C(O)c1ccc(-c2c3ccccc3nn2Cc2ccc(F)cc2)cc1 [Compound 36, 4-[2-(4-Fluorobenzyl)-2H-indazol-3-yl]benzoic acid]

- melting point: 77.6 to 78.8 °C
Structure (SMILES): Cc1ccc(-c2nn(Cc3ccccc3Cl)c3ccccc23)cc1 [Compound 18, 1-(2-Chlorobenzyl)-3-(4-methylphenyl)-1H-indazole]
